Some test systems named below: OVCAR-5 ovarian; HCC-2998 colon; OVCAR-4 ovarian; HCT-15 colon; M14 melanoma; SNB-19 CNS; CAKI-1 renal; NCI/ADR-RES ovarian; CCRF-CEM leukemia; K-562 leukemia.
Assay in all cases: NCI-60 cell line screen, 48 h

SMILES strings stand for the structures.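 96-well plates; 48 h exposure; 5 concentrations. Endpoints by linear interpolation between flanking doses. Not reached: highest tested concentration assigned. At the GI50, growth is halved. At the TGI there is no net growth.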

As for `Cc1c2c(C(N)=O)nccc2c(C)c2c1c1ccccc1n2Cc1ccccc1`, the TGI in the assay with OVCAR-5 ovarian is above 100 µM; in the assay with HCC-2998 colon, 73.1 µM; in the assay on OVCAR-4 ovarian, 7.47 µM; in the assay on HCT-15 colon, 44.2 µM; in the assay with M14 melanoma, above 100 µM; in the assay with SNB-19 CNS it was 51.2 µM. Further, the TGI was 59 µM in the assay on CAKI-1 renal, 27.9 µM in the assay on NCI/ADR-RES ovarian, 62.6 µM with CCRF-CEM leukemia and 45.7 µM with K-562 leukemia.
As to `Cn1cc(-c2csc(-c3cn(C)c4ccc(F)cc34)n2)c2cnccc21`, the GI50 was 1.68 µM in the assay on OVCAR-5 ovarian; 1.86 µM with HCC-2998 colon; 1.7 µM in the assay on OVCAR-4 ovarian; 1.68 µM in the assay on HCT-15 colon; 1.72 µM in the assay on M14 melanoma; 1.82 µM in the assay on SNB-19 CNS. For the same molecule, the GI50 is 1.77 µM in the assay on CAKI-1 renal, 2.03 µM with NCI/ADR-RES ovarian, 1.96 µM in the assay with CCRF-CEM leukemia and 1.7 µM in the assay on K-562 leukemia. In addition, the TGI in the assay with OVCAR-5 ovarian was 3.15 µM; in the assay on HCC-2998 colon, 3.55 µM; with OVCAR-4 ovarian it was 3.16 µM; in the assay with HCT-15 colon it was 3.27 µM; with M14 melanoma it was 3.21 µM; with SNB-19 CNS, 3.3 µM. The TGI in the assay on CAKI-1 renal is 3.19 µM; with NCI/ADR-RES ovarian, 4.02 µM; in the assay on CCRF-CEM leukemia it was 4.13 µM; with K-562 leukemia it was 3.78 µM.
Regarding `NC(N)=N/N=C(\N=Nc1ccccc1)c1ccc(Cl)cc1`, the GI50 in the assay on OVCAR-5 ovarian is 3.69 µM; with HCC-2998 colon, 2.14 µM; in the assay with OVCAR-4 ovarian, 1.79 µM; in the assay on HCT-15 colon it was 3.02 µM; in the assay with M14 melanoma, 1.51 µM; in the assay with SNB-19 CNS it was 12 µM. Further, the GI50 was 1.42 µM in the assay on CAKI-1 renal, 2.76 µM with NCI/ADR-RES ovarian, 1.76 µM with CCRF-CEM leukemia and 1.2 µM in the assay on K-562 leukemia. The TGI amounted to 16.8 µM with OVCAR-5 ovarian; 4.68 µM with HCC-2998 colon; 12.6 µM with OVCAR-4 ovarian; 14.9 µM in the assay with HCT-15 colon; 4.39 µM in the assay on M14 melanoma; 35.5 µM in the assay with SNB-19 CNS. In addition, the TGI in the assay on CAKI-1 renal is 3.29 µM; in the assay with NCI/ADR-RES ovarian, 10.4 µM; with CCRF-CEM leukemia, 5.78 µM; with K-562 leukemia, 6.37 µM.
Turning to `COc1cc2c3c(n(CCCN(CCO)CCO)c(=O)c2cc1OC)-c1cc2c(cc1C3=O)OCO2`, the GI50 is 0.209 µM with OVCAR-5 ovarian; below 0.01 µM in the assay on HCC-2998 colon; 0.842 µM in the assay on OVCAR-4 ovarian; 0.838 µM with HCT-15 colon; below 0.01 µM in the assay with M14 melanoma; 0.603 µM in the assay with SNB-19 CNS. For the same molecule, the GI50 in the assay on CAKI-1 renal was below 0.01 µM; in the assay on NCI/ADR-RES ovarian it was 0.117 µM; in the assay with CCRF-CEM leukemia it was below 0.01 µM; in the assay with K-562 leukemia it was below 0.01 µM. For the same molecule, the TGI in the assay with OVCAR-5 ovarian was 1.31 µM; with HCC-2998 colon, below 0.01 µM; with OVCAR-4 ovarian, 3.61 µM; in the assay on HCT-15 colon it was 20.7 µM; in the assay on M14 melanoma it was 0.17 µM; with SNB-19 CNS it was above 35.5 µM. Further, the TGI in the assay with CAKI-1 renal was below 0.018 µM.
As to `COc1cc(/C=C/C(=O)C(C(=O)/C=C/c2ccc(OC(=O)CCNC34CC5CC(CC(C5)C3)C4)c(OC)c2)C(=O)CCNC23CC4CC(CC(C4)C2)C3)ccc1OC(=O)CCNC12CC3CC(CC(C3)C1)C2` (configuration not stated), the GI50 was 5.65 µM with OVCAR-5 ovarian; 1.93 µM in the assay with HCC-2998 colon; 8.89 µM in the assay on OVCAR-4 ovarian; 3.21 µM in the assay on HCT-15 colon; 3.51 µM in the assay on M14 melanoma; 4.07 µM with SNB-19 CNS. The GI50 in the assay with CAKI-1 renal is 5.72 µM; in the assay with NCI/ADR-RES ovarian, 4.82 µM; in the assay with CCRF-CEM leukemia, 1.65 µM; in the assay on K-562 leukemia, 1.99 µM. Further, the TGI in the assay on OVCAR-5 ovarian is 19.6 µM; with HCC-2998 colon, 3.84 µM; in the assay with OVCAR-4 ovarian it was 57.1 µM; in the assay on HCT-15 colon, 7.51 µM; in the assay on M14 melanoma, 13.9 µM; in the assay on SNB-19 CNS, 15.9 µM. Besides, the TGI in the assay on CAKI-1 renal is above 100 µM; in the assay on NCI/ADR-RES ovarian it was 90.2 µM; in the assay on CCRF-CEM leukemia it was 4.12 µM; in the assay on K-562 leukemia it was 4.97 µM.
Turning to `COc1cc(/C=C/C(=O)Oc2ccccc2)ccc1C(=O)O/C=C/c1ccccc1`, the TGI in the assay with OVCAR-5 ovarian, with HCC-2998 colon, with OVCAR-4 ovarian, in the assay on HCT-15 colon, with M14 melanoma and in the assay on SNB-19 CNS was above 100 µM each time. In addition, the TGI in the assay with CAKI-1 renal, in the assay with NCI/ADR-RES ovarian, in the assay on CCRF-CEM leukemia and in the assay with K-562 leukemia was above 100 µM each time.
In the case of `Oc1ccc(Oc2cnc3ccccc3n2)cc1`, the GI50 with OVCAR-5 ovarian is above 100 µM; in the assay with HCC-2998 colon it was above 100 µM; with OVCAR-4 ovarian, 60.3 µM; in the assay with HCT-15 colon, above 100 µM; with M14 melanoma it was above 100 µM; in the assay with SNB-19 CNS, above 100 µM. The GI50 was 29.5 µM with CAKI-1 renal, above 100 µM with NCI/ADR-RES ovarian, 24.2 µM in the assay with CCRF-CEM leukemia and above 100 µM in the assay on K-562 leukemia. Besides, the TGI in the assay on OVCAR-5 ovarian, in the assay with HCC-2998 colon, with OVCAR-4 ovarian, in the assay with HCT-15 colon, in the assay on M14 melanoma and in the assay with SNB-19 CNS was above 100 µM in each case. Further, the TGI was 81.1 µM in the assay with CAKI-1 renal, above 100 µM in the assay with NCI/ADR-RES ovarian, above 100 µM with CCRF-CEM leukemia and above 100 µM in the assay with K-562 leukemia.
As to `CS(=O)(=O)CS(=O)(=O)OCCCl`, the TGI in the assay with OVCAR-5 ovarian turned out to be 1260 µM; with HCC-2998 colon it was 727 µM; with OVCAR-4 ovarian it was 1040 µM; in the assay on HCT-15 colon it was 1090 µM; with M14 melanoma, 770 µM; in the assay on SNB-19 CNS, 969 µM. In addition, the TGI with CAKI-1 renal was 799 µM; in the assay on NCI/ADR-RES ovarian it was 1960 µM; with CCRF-CEM leukemia, 687 µM; in the assay with K-562 leukemia, 3120 µM.
Consider `CC1(C)N=C(N)N=C(N)N1c1cccc(OCCOc2cccc([N+](=O)[O-])c2)c1`, for which the GI50 is 1.88 µM with OVCAR-5 ovarian; 2.81 µM in the assay on HCC-2998 colon; 14.4 µM in the assay with OVCAR-4 ovarian; above 100 µM with HCT-15 colon; 14.4 µM in the assay with M14 melanoma; 4.88 µM in the assay with SNB-19 CNS. The GI50 was above 100 µM with CAKI-1 renal, above 100 µM with NCI/ADR-RES ovarian, 1.23 µM in the assay on CCRF-CEM leukemia and 2.1 µM in the assay with K-562 leukemia. Besides, the TGI in the assay with OVCAR-5 ovarian, with HCC-2998 colon, in the assay with OVCAR-4 ovarian, in the assay on HCT-15 colon, in the assay with M14 melanoma and in the assay on SNB-19 CNS was above 100 µM in each case. Besides, the TGI in the assay on CAKI-1 renal, in the assay with NCI/ADR-RES ovarian, with CCRF-CEM leukemia and in the assay on K-562 leukemia was above 100 µM each time.
As for `C=C(C)[C@@H]1CC[C@]2(C)[C@H](CC[C@@H]3[C@@H]([C@@](C)(O)CCC=C(C)C)CC[C@]32C)[C@@]1(C)CCC(=O)O`, the GI50 was 17.6 µM with OVCAR-5 ovarian; 21.2 µM with HCC-2998 colon; 16.3 µM in the assay on OVCAR-4 ovarian; 15.4 µM in the assay with HCT-15 colon; 16.4 µM in the assay on M14 melanoma; 18.8 µM in the assay on SNB-19 CNS. Moreover, the GI50 in the assay with CAKI-1 renal was 13.9 µM; in the assay on NCI/ADR-RES ovarian, 20.2 µM; in the assay on CCRF-CEM leukemia, 18 µM; with K-562 leukemia, 18.5 µM. Further, the TGI in the assay with OVCAR-5 ovarian amounted to 34.2 µM; with HCC-2998 colon, 37.8 µM; with OVCAR-4 ovarian, 39 µM; in the assay on HCT-15 colon it was 31 µM; in the assay with M14 melanoma it was 36.1 µM; in the assay on SNB-19 CNS it was 34.9 µM. For the same molecule, the TGI in the assay on CAKI-1 renal came out at 27.7 µM; with NCI/ADR-RES ovarian it was 41.3 µM; with CCRF-CEM leukemia, 48.2 µM; in the assay with K-562 leukemia it was 90.5 µM.

Source of the values: PubChem BioAssay (NCI).
